Data taken from patent publication US4372970A, “Benzofuran acetic acid esters and their arthropocidal compositions” (Shell Internationale Research Maatschappij B.V., priority 1979, dated 1983).

How the values were obtained:
Plutella xylostella = assay: Knockdown of Plutella xylostella (cabbage leaf dip test); type: in vivo; details: foliar, Plutella xylostella 3rd instar larvae, knockdown after 24 hours, read-out: Plutella % KD at 25.0 ppm
Text: (§1) The activities of some of the compounds of the Examples has been shown in the following tests in three species of phytophagous arthropods, namely Megoura vicae, Plutella xylostella, Tetranychus cinnabarinus.
(§2) Aqueous suspensions of test compound were made by adding a solution of test compound in AR acetone to a solution of TWEEN 80 (200 p.p.m.) in water.
A 9.0 cm square of cabbage leaf was dipped for 4 seconds in the aqueous suspension of the test compound, and allowed to dry. The leaf was placed on filter paper in a Petri dish (9.0 cm). Five 3rd instar larvae were placed on the leaf, and the dish was placed in a polythene bag containing a wet cotton-wool pad. Knockdown was recorded after 24 hours.

Musca domestica [1] = assay: Topical activity against Musca domestica with synergist piperonyl butoxide (24 hours, LC50, relative to Resmethrin); type: in vivo; details: Musca domestica 3-day old adult females, with 0.5% w/v piperonyl butoxide, from LC50
Procedure: (§3) The insecticidal activities of the compounds of the Examples has been shown by the following tests in four species of insects, namely Aedes aegypti, Musca domestica, Blattella germanica, and Tribolium castaneum.
(§4) (i) A 1 μl drop of a solution of test compound in AR acetone (high purity acetone) was applied to the dorsal thorax of 3-day old adult females. Knockdown was recorded after 24 hours. Solutions of different concentration were tested from which the concentration of solution and therefore the amount of compound which gives 50% kill (LC50) was determined.
(ii) Similar tests were carried out with the amendment that to each test solution, 0.5% w/v of commercial insecticide synergist, piperonyl butoxide, was added.
(§5) The results are all expressed as activities relative to the activity of Resmathrin (assigned activity=100), determined by the methods described. [formula]

Tribolium castaneum = assay: Topical activity against Tribolium castaneum (knockdown after 48 hours, LD50, relative to Resmethrin); type: in vivo; details: Tribolium castaneum adults, from LD50
Procedure: as §3
A 1 μl drop of a solution of test compound in AR acetone was applied topically to adult insects. Knockdown was recorded after 48 hours. Solutions of different concentrations were tested from which the concentration of solution which gives 50% knockdown (LD50) was determined.
as §5

Aedes aegypti = assay: Larvicidal activity against Aedes aegypti (kill after 24 hours, LC50, relative to Resmethrin); type: in vivo; details: Aedes aegypti 3 day old larvae, from LC50
Procedure: as §3
A 0.2 cm^3 sample of a solution of test compound in AR acetone was applied to water (200 cm^3) containing 20 (3 day old) larvae. Kill was recorded after 24 hours. Solutions of different concentration were tested from which the concentration of solution which gives 50% kill (LC50) was determined.
as §5

Tetranychus cinnabarinus = assay: Activity against Tetranychus cinnabarinus (dwarf French bean leaf dip test); type: in vivo; details: foliar, Tetranychus cinnabarinus adult mites, 48 hours, read-out: Tetranychus % KD at 500.0 ppm
Text: as §1, §2
The two primary leaves of dwarf French beans were reduced to 2.5 cm squares, and they were infested with ca. 20 adult mites. The leaves were then dipped for 4 seconds in the aqueous suspension of the test compound and allowed to dry. Adult mortality was recorded after 48 hours.

Megoura vicae = assay: Knockdown of Megoura vicae (dip test); type: in vivo; details: Megoura vicae adults, knockdown after 24 hours
Text: as §1, §2
Adult insects were dipped individually for 4 seconds in the aqueous suspension of test compound and then placed on a filter paper in a Petri dish (9.0 cm diameter) with a p.t.f.e. rim. A 5.0 cm long piece of broad bean stem was added and the lid was put on. Knockdown was recorded after 24 hours.

Musca domestica [2] = assay: Topical activity against Musca domestica, compound alone (24 hours, LC50, relative to Resmethrin); type: in vivo; details: Musca domestica 3-day old adult females, without synergist, from LC50
Procedure: as §3, §4, §5

Blattella germanica = assay: Topical activity against Blattella germanica (24 hours, LC50, relative to Resmethrin); type: in vivo; details: Blattella germanica 1-4 week old adult males, from LC50
Procedure: as §3
A 2 μl drop of a solution of the test compound in AR acetone was applied between the rear coxae of 1-4 week old adult males. Knockdown was recorded after 24 hours. Solutions of different concentration were tested from which the concentration of solution which gives 50% kill (LC50) was determined.
as §5

[3] = Photostability of a deposit exposed to a light source; type: physicochemical; details: times greater than Resmethrin
Text: Photostability is an important feature when the insecticide is applied to foliage. […] A deposit of selected Examples and Resmethrin was exposed to a light source and tested at increasing time intervals.

| SMILES | Megoura % KD at 1.0 ppm (Megoura vicae) | photostability half-life relative to Resmethrin [3] | mortality at 25 ppm (Plutella xylostella) | Activity Relative to Resmethrin = 100, Musca with Synergist (Musca domestica [1]) | Activity Relative to Resmethrin = 100, Tribolium (Tribolium castaneum) | Activity Relative to Resmethrin = 100, Aedes (Aedes aegypti) | mortality at 500 ppm (Tetranychus cinnabarinus) | Activity Relative to Resmethrin = 100, Musca Alone (Musca domestica [2]) | Activity Relative to Resmethrin = 100, Blattella (Blattella germanica) |
| --- | --- | --- | --- | --- | --- | --- | --- | --- | --- |
| CC(C)C(C(=O)OCc1cccc(Oc2ccccc2)c1)c1ccc2ccoc2c1 (stereo not drawn) [Example 1, m-Phenoxybenzyl α-isopropylbenzofuran-6-acetate] | 63.7% | – | 97.5% | 87 | 102.9 | 182 | 65.5% | 88 | 197 |
| CC(C)C(C(=O)OC(C#N)c1cccc(Oc2ccccc2)c1)c1ccc2ccoc2c1 (stereo not drawn) [Example 2, α-Cyano-m-phenoxybenzyl α-isopropylbenzofuran-6-acetate] | 97.5% | 17.5 times | 97.5% | 606 | 583 | 286 | 83.7% | 123 | 459 |
| CC(C)C(C(=O)OCc1cccc(Oc2ccccc2)c1)c1ccc2sccc2c1 (stereo not drawn) [Example 3, m-Phenoxybenzyl α-isopropylbenzo(b)thiophene-5-acetate] | 61.25% | – | 47.5% | 100 | 29.2 | 6.5 | 76.7% | 17 | 62 |
| CC(C)C(C(=O)OC(C#N)c1cccc(Oc2ccccc2)c1)c1ccc2sccc2c1 (stereo not drawn) [Example 4, α-Cyano-m-phenoxybenzyl α-isopropylbenzo(b)thiophene-5-acetate] | – | 21.5 times | – | 400 | – | 105 | – | 16 | 62 |
| CC(C)C(C(=O)OCc1cccc(Oc2ccccc2)c1)c1cccc2occc12 (stereo not drawn) [Example 5, m-Phenoxybenzyl α-isopropylbenzofuran-4-acetate] | 32.5% | – | 57.5% | 27 | 50 | 211 | 33.2% | 9 | 20.7 |
| CC(C)C(C(=O)OCc1cccc(Oc2ccccc2)c1)c1ccc2c(Cl)coc2c1 (stereo not drawn) [Example 6, m-Phenoxybenzyl 3-chloro-α-isopropylbenzofuran-6-acetate] | – | – | – | 110 | 80.4 | 151 | – | 20 | – |
| CC(C)C(C(=O)OC(C#N)c1cccc(Oc2ccccc2)c1)c1ccc2c(Cl)coc2c1 (stereo not drawn) [Example 7, α-Cyano-m-phenoxybenzyl 3-chloro-α-isopropylbenzofuran-6-acetate] | 98.3% | – | 100% | 6060 | 411 | 250 | 88.8% | 133 | 1240 |
| CC(C)C(C(=O)OC(C#N)c1cccc(Oc2ccccc2)c1)c1cccc2occc12 (stereo not drawn) [Example 8, α-Cyano-m-phenoxybenzyl α-isopropylbenzofuran-4-acetate] | 66.9% | – | 87.5% | 926 | 194 | 108 | 100% | 125 | 206 |

More lines, main results first:

| Megoura % KD at 1.0 ppm (Megoura vicae) | photostability half-life relative to Resmethrin [3] | SMILES | mortality at 25 ppm (Plutella xylostella) | Activity Relative to Resmethrin = 100, Musca with Synergist (Musca domestica [1]) | Activity Relative to Resmethrin = 100, Tribolium (Tribolium castaneum) | Activity Relative to Resmethrin = 100, Aedes (Aedes aegypti) | mortality at 500 ppm (Tetranychus cinnabarinus) | Activity Relative to Resmethrin = 100, Musca Alone (Musca domestica [2]) | Activity Relative to Resmethrin = 100, Blattella (Blattella germanica) |
| --- | --- | --- | --- | --- | --- | --- | --- | --- | --- |
| 93.75% | – | CC(C)C(C(=O)OC(C#N)c1cccc(Oc2ccccc2)c1)c1ccc2occc2c1 (stereo not drawn) [Example 9, α-Cyano-m-phenoxybenzyl α-isopropylbenzofuran-5-acetate] | 90% | 333 | 389 | 174 | 81.7% | 186 | 1378 |
| 0% | – | CC(C)C(C(=O)OC(C#N)c1cccc(Oc2ccccc2)c1)c1ccc2c(c1)CCO2 (stereo not drawn) [Example 10, α-Cyano-m-phenoxybenzyl 2,3-dihydro-α-isopropylbenzofuran-5-acetate] | – | 575 | 159 | 286 | < 20% | 18 | 207 |
| 35% | – | CC(C)C(C(=O)OC(C#N)c1cccc(Oc2ccccc2)c1)c1ccc2cc(Br)oc2c1 (stereo not drawn) [Example 11, α-Cyano-m-phenoxybenzyl 2-bromo-α-isopropylbenzofuran-6-acetate] | – | 417 | 88 | 160 | < 20% | 68 | 207 |
| 15% | – | CC(C)C(C(=O)OC(C#N)c1cccc(Oc2ccccc2)c1)c1ccc(Cl)c2occc12 (stereo not drawn) [Example 12, α-Cyano-m-phenoxybenzyl 7-chloro-α-isopropylbenzofuran-4-acetate] | – | 454 | 100 | 417 | < 10% | 140 | 207 |
| 86.6% | – | CC(C)C(C(=O)OC(C#N)c1cccc(Oc2ccccc2)c1)c1ccc(Cl)c2oc(Br)cc12 (stereo not drawn) [Example 13, α-Cyano-m-phenoxybenzyl 2-bromo-7-chloro-α-isopropylbenzofuran-4-acetate] | – | 417 | < 2 | 267 | < 10% | 10 | < 10 |
| 93.3% | – | Cc1oc2cc(C(C(=O)OC(C#N)c3cccc(Oc4ccccc4)c3)C(C)C)ccc2c1C (stereo not drawn) [Example 14, α-Cyano-m-phenoxybenzyl 2,3-dimethyl-α-isopropylbenzofuran-6-acetate] | – | 179 | < 17.5 | 200 | 46.7% | 12 | 62 |
| 90% | – | Cc1oc2cc(C(C(=O)OCc3cccc(Oc4ccccc4)c3)C(C)C)ccc2c1C (stereo not drawn) [Example 15, m-Phenoxybenzyl 2,3-dimethyl-α-isopropylbenzofuran-6-acetate] | – | 24 | 4.7 | 118 | 100% | 1 | < 10 |
